{"source": "ChEMBL document CHEMBL1134182", "about": "“Modified synthesis and antiangiogenic activity of linomide” (2001)", "key": {"Mus musculus [1]": {"test_system": "Mus musculus", "assay": "In vivo effect of compound on VEGF-induced angiogenesis in blood vessels of mice", "format": "functional"}, "Mus musculus [2]": {"test_system": "Mus musculus", "assay": "In vivo effect of compound on VEGF-induced angiogenesis in blood volume of mice", "format": "functional"}}}
{"molecule": "CN(C(=O)c1c(O)c2ccccc2n(C)c1=O)c1ccccc1", "note": "[ROQUINIMEX]", "values": [{"measurement": "Activity", "setting": "Mus musculus [1]", "value": "<3.48", "unit": "%"}, {"measurement": "Blood volume", "setting": "Mus musculus [2]", "value": "<0.33", "unit": "HB g ml-1"}]}
